Results on three compounds are retold here after patent EP3046573B1, “AMYLIN ANALOGUES” (Zealand Pharma A/S, priority 2013, dated 2015).

In data set [1] the target is T1, human calcitonin receptor (hCTR2) (Homo sapiens, UniProt P30988).
T1 construct: expressed in transfected cells
T1 sequence (P30988 25-474): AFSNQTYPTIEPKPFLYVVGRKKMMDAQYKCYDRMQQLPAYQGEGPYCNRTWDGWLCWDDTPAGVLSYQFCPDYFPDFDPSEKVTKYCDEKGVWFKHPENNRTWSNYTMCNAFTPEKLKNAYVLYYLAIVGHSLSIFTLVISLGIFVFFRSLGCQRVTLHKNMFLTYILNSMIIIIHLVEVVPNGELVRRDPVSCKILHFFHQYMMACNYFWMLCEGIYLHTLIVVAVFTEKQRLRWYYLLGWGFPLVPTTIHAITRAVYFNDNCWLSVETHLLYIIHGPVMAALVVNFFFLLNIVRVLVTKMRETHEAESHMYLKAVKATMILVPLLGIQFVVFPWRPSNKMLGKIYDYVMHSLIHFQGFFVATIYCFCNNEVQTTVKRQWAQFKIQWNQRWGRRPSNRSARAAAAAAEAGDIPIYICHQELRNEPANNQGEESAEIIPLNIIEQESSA
The experiment in a line: hCTR2 assay: induction of cAMP (AlphaScreen cAMP Assay kit) in COS7 cells expressing hCTR2. In kind it is cell-based. As to conditions: cAMP induction in COS7 cells expressing hCTR2; average of a minimum of 3 determinations; read-out: hCTR2 EC50. A digest of the protocol: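 cAMP read-out by AlphaScreen after cell lysis; EC50 and % efficacy vs pramlintide from 4-parameter logistic fitting. Agonist stimulation: hCTR2-COS7 stable cells, 15 min, 37° C, 100 µM IBMX, 0.1% casein, Tyrode/HEPES pH 7.4.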
On the technique in general: Alpha assays give light when donor and acceptor beads are brought close together.

The target of data set [2] is T2, human amylin receptor 3 (hAMYR3) consisting of hCTR2 co-expressed with human Receptor Activity Modifying Protein 3 (hRAMP3) (Homo sapiens, UniProt O60896+P30988).
T2 construct: expressed in transfected cells
T2 sequence (P30988 25-474): T1 sequence (P30988 25-474)
T2 sequence (O60896 24-148 partner): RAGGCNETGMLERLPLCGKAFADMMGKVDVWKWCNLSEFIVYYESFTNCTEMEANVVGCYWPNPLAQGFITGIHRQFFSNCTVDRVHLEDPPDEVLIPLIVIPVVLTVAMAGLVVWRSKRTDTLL
Description: hAMYR3 assay: induction of cAMP (AlphaScreen cAMP Assay kit) in COS7 cells expressing hAMYR3. It is filed as cell-based. To be noted: cAMP induction in COS7 cells expressing hAMYR3; average of a minimum of 3 determinations; read-out: hAMY R3 EC50. A digest of the protocol:
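cAMP accumulation read by AlphaScreen in lysates of RAMP-naive COS7 cells stably transfected with hCTR2 plus hRAMP3. Cells exposed to peptide dilutions for 15 min, 37° C, with 100 µM IBMX; 4PL fitting gave EC50 and efficacy relative to pramlintide.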

Data set [3] is described as follows: Solubility assessment (turbidity absorbance at 325 nm). In kind it is physicochemical. To be noted: stock 2 mg/ml diluted 1:1, ambient temperature (typically 25°C), n=1; for Solubility, Acetate buffer pH 4: 100 mM acetate buffer pH 4.0; for Solubility, Acetate buffer pH 5: 100 mM acetate buffer pH 5.0; for Solubility, Histidine buffer pH 6: 100 mM histidine buffer pH 6.0; for Solubility, Histidine buffer pH 7: 100 mM histidine buffer pH 7.0; for Solubility, Phosphate buffer pH 6: 100 mM phosphate buffer pH 6.0; for Solubility, Phosphate buffer pH 7: 100 mM phosphate buffer pH 7.0; for Solubility, Phosphate buffer pH 7.5: 100 mM phosphate buffer pH7.5. The method, boiled down:
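Turbidimetric screen across pH 4.0–7.5 in 100 mM acetate, histidine and phosphate buffers. A 2 mg/ml peptide stock (pH 2.5) was diluted 1:1 into each, then A325 measured at ambient temperature; values ≤ 0.02 AU denoted solubility of 1 mg/ml or more.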

Numbered stars: 1 amine (or outer) side, 2 acyl side, 3 side chain; on linkers, the order of the positions; unused ones are H or OH. Bridge positions count the residues as written; N and C are the ends. Square brackets hold non-standard residues; d marks the D form. Peptide text beside a SMILES is read from it. * marks the point of attachment. C20 diacid = O=C(O)CCCCCCCCCCCCCCCCCCC(=O)*; γGlu = O=C(O)[C@H](CCC(=O)[*:2])N[*:1]; NMeI = CC[C@H](C)[C@H](NC)C(=O)O; Sar = CNCC(=O)O

In general, EC50 refers to the concentration at which the effect is half-maximal. As to `CC[C@H](C)[C@@H](C(=O)N[C@@H](CC(C)C)C(=O)N[C@@H](CO)C(=O)N[C@@H](CO)C(=O)N[C@H](C(=O)N[C@@H](CC(=O)O)C(=O)N[C@H](C(=O)NCC(=O)N[C@@H](CO)C(=O)N[C@@H](CC(=O)O)C(=O)N[C@H](C(=O)N1CCC[C@H]1C(N)=O)[C@@H](C)O)C(C)C)[C@@H](C)O)N(C)C(=O)[C@H](C)NC(=O)CN(C)C(=O)[C@H](Cc1ccccc1)NC(=O)[C@H](CO)NC(=O)[C@H](CO)NC(=O)[C@H](CCCNC(=N)N)NC(=O)[C@H](Cc1c[nH]cn1)NC(=O)[C@H](CC(C)C)NC(=O)[C@H](Cc1ccccc1)NC(=O)[C@H](CCC(=O)O)NC(=O)[C@H](C)NC(=O)[C@H](CC(C)C)NC(=O)[C@H](CCCNC(=N)N)NC(=O)[C@H](CC(=O)O)NC(=O)[C@@H](NC(=O)[C@H](C)NC(=O)[C@@H]1CSSC[C@H](NC(=O)[C@H](Cc2c[nH]c3ccccc23)NC(=O)CC[C@H](NC(=O)CCCCCCCCCCCCCCCCCCC(=O)O)C(=O)O)C(=O)NCC(=O)N[C@@H]([C@@H](C)O)C(=O)N[C@@H](C)C(=O)N[C@@H]([C@@H](C)O)C(=O)N1)[C@@H](C)O` [Compound 157, [19CD]-isoGlu-WC()GTATC()ATDRLAEFLHRSSF-Gly(Me)-A-Ile(Me)-LSSTDVGSDTP-NH2] ({C20 diacid-γGlu}-WCGTATCATDRLAEFLHRSSF[Sar]A[NMeI]LSSTDVGSDTP-NH2; disulfide 2-7), in data set [1], the EC50 is 0.072 nM. Besides, in data set [2], the EC50 amounted to 0.16 nM. Moreover, in data set [3], the “Solubility, Acetate buffer pH 4” value was “II (II indicates solubility ≤ 1 mg/ml)”; the “Solubility, Acetate buffer pH 5” value is “SS (SS indicates solubility ≥ 1mg/ml)”; the “Solubility, Histidine buffer pH 6” value was “SS (SS indicates solubility ≥ 1mg/ml)”; the “Solubility, Histidine buffer pH 7” value was “SS (SS indicates solubility ≥ 1mg/ml)”. For the same compound, in data set [3], the “Solubility, Phosphate buffer pH 6” value is “SS (SS indicates solubility ≥ 1mg/ml)”; the “Solubility, Phosphate buffer pH 7” value is recorded as “SS (SS indicates solubility ≥ 1mg/ml)”; the “Solubility, Phosphate buffer pH 7.5” value is recorded as “SS (SS indicates solubility ≥ 1mg/ml)”.
With `CC[C@H](C)[C@@H](C(=O)N[C@@H](CC(C)C)C(=O)N[C@@H](CO)C(=O)N[C@@H](CO)C(=O)N[C@H](C(=O)N[C@@H](CC(=O)O)C(=O)N[C@H](C(=O)NCC(=O)N[C@@H](CO)C(=O)N[C@@H](CC(=O)O)C(=O)N[C@H](C(=O)N1CCC[C@H]1C(N)=O)[C@@H](C)O)C(C)C)[C@@H](C)O)N(C)C(=O)[C@H](C)NC(=O)CN(C)C(=O)[C@H](Cc1ccccc1)NC(=O)[C@H](CO)NC(=O)[C@H](CO)NC(=O)[C@H](CCCNC(=N)N)NC(=O)[C@H](Cc1c[nH]cn1)NC(=O)[C@H](CC(C)C)NC(=O)[C@H](Cc1ccccc1)NC(=O)[C@H](CCC(=O)O)NC(=O)[C@H](C)NC(=O)[C@H](CC(C)C)NC(=O)[C@H](CCCNC(=N)N)NC(=O)[C@H](CC(=O)O)NC(=O)[C@@H](NC(=O)[C@H](C)NC(=O)[C@@H]1CSSC[C@H](NC(=O)[C@H](CCCNC(=N)N)NC(=O)CC[C@H](NC(=O)CCCCCCCCCCCCCCCCCCC(=O)O)C(=O)O)C(=O)NCC(=O)N[C@@H]([C@@H](C)O)C(=O)N[C@@H](C)C(=O)N[C@@H]([C@@H](C)O)C(=O)N1)[C@@H](C)O` [Compound 158, [19CD]-isoGlu-RC()GTATC()ATDRLAEFLHRSSF-Gly(Me)-A-Ile(Me)-LSSTDVGSDTP-NH2] ({C20 diacid-γGlu}-RCGTATCATDRLAEFLHRSSF[Sar]A[NMeI]LSSTDVGSDTP-NH2; disulfide 2-7), the EC50 in data set [1] is 0.048 nM. Further, the EC50 in data set [2] was determined as 0.11 nM. For the same compound, in data set [3], the “Solubility, Acetate buffer pH 4” value is “SS (SS indicates solubility ≥ 1mg/ml)”; the “Solubility, Acetate buffer pH 5” value is reported as “SS (SS indicates solubility ≥ 1mg/ml)”; the “Solubility, Histidine buffer pH 6” value was “SS (SS indicates solubility ≥ 1mg/ml)”; the “Solubility, Histidine buffer pH 7” value is given as “SS (SS indicates solubility ≥ 1mg/ml)”. Moreover, in data set [3], the “Solubility, Phosphate buffer pH 6” value was “SS (SS indicates solubility ≥ 1mg/ml)”; the “Solubility, Phosphate buffer pH 7” value is given as “SS (SS indicates solubility ≥ 1mg/ml)”; the “Solubility, Phosphate buffer pH 7.5” value was “SS (SS indicates solubility ≥ 1mg/ml)”.
For the compound `CC[C@H](C)[C@@H](C(=O)N[C@@H](CC(C)C)C(=O)N[C@@H](CO)C(=O)N[C@@H](CO)C(=O)N[C@H](C(=O)N[C@@H](CC(=O)O)C(=O)N[C@H](C(=O)NCC(=O)N[C@@H](CO)C(=O)N[C@@H](CC(=O)O)C(=O)N[C@H](C(=O)N1CCC[C@H]1C(N)=O)[C@@H](C)O)C(C)C)[C@@H](C)O)N(C)C(=O)[C@H](C)NC(=O)CN(C)C(=O)[C@H](Cc1ccccc1)NC(=O)[C@H](CO)NC(=O)[C@H](CO)NC(=O)[C@H](CO)NC(=O)[C@H](CO)NC(=O)[C@H](CCCNC(=N)N)NC(=O)[C@H](Cc1c[nH]cn1)NC(=O)[C@H](CC(C)C)NC(=O)[C@H](Cc1ccccc1)NC(=O)[C@H](CCC(=O)O)NC(=O)[C@H](C)NC(=O)[C@H](CC(C)C)NC(=O)[C@H](CCCNC(=N)N)NC(=O)[C@H](CCC(=O)O)NC(=O)[C@@H](NC(=O)[C@H](C)NC(=O)[C@@H]1CSSC[C@H](NC(=O)[C@H](CCCCN)NC(=O)[C@H](CCCCN)NC(=O)CC[C@H](NC(=O)CCCCCCCCCCCCCCCCCCC(=O)O)C(=O)O)C(=O)N[C@@H](CC(N)=O)C(=O)N[C@@H]([C@@H](C)O)C(=O)N[C@@H](C)C(=O)N[C@@H]([C@@H](C)O)C(=O)N1)[C@@H](C)O` [Compound 159, [19CD]-isoGlu-KKC()NTATC()ATERLAEFLHRSSSSF-Gly(Me)-A-Ile(Me)-LSSTDVGSDTP-NH2] ({C20 diacid-γGlu}-KKCNTATCATERLAEFLHRSSSSF[Sar]A[NMeI]LSSTDVGSDTP-NH2; disulfide 3-8), the half-maximal effective concentration (EC50) in data set [1] is 0.1 nM. Moreover, in data set [2], the half-maximal effective concentration (EC50) was determined as 0.14 nM. Besides, in data set [3], the “Solubility, Acetate buffer pH 4” value is given as “SS (SS indicates solubility ≥ 1mg/ml)”; the “Solubility, Acetate buffer pH 5” value is “SS (SS indicates solubility ≥ 1mg/ml)”; the “Solubility, Histidine buffer pH 6” value is “SS (SS indicates solubility ≥ 1mg/ml)”; the “Solubility, Histidine buffer pH 7” value is listed as “SS (SS indicates solubility ≥ 1mg/ml)”. For the same compound, in data set [3], the “Solubility, Phosphate buffer pH 6” value is given as “SS (SS indicates solubility ≥ 1mg/ml)”; the “Solubility, Phosphate buffer pH 7” value was “SS (SS indicates solubility ≥ 1mg/ml)”; the “Solubility, Phosphate buffer pH 7.5” value was “SS (SS indicates solubility ≥ 1mg/ml)”.
